According to patent publication US10316039B2, “P2X3 and/or P2X2/3 compounds and methods” (Asana Biosciences, LLC, priority 2013, dated 2019):

Tested on: thermal hyperalgesia induced by intraplantar Complete Freund's Adjuvant
Test: CFA-induced inflammatory thermal hyperalgesia (Hargreaves test)
Format: in vivo
Conditions: rat, 60 mg/kg, dosed 48 h after footpad CFA
Experimental: (§1) FIG. 2 illustrates the antihyperalgesic effects of the compound of example 22 in a rat model of inflammatory thermal hyperalgesia induced by an intraplantar injection of Complete Freund's Adjuvant (CFA). Thermal hyperalgesia is manifest as a reduction in the time for foot-withdrawal during irradiation with a painful thermal stimulus. The compound of example 22 was administered at a dose of 60 mg/kg, 48 h after footpad injection of CFA and produced a substantial reversal (77% and 68%) of thermal hyperalgesia when assessed at 1 h and 2 h post-dose, respectively.
as §1, with “5” for “2”, “38” for “22”, “CFA.” for “Complete Freund's Adjuvant (CFA).”, “(50%)” for “(77% and 68%)”, “post-dose.” for “and 2 h post-dose, respectively.”
as §1, with “6” for “2”, “52” for “22”, “CFA.” for “Complete Freund's Adjuvant (CFA).”, “(39%)” for “(77% and 68%)”, “post-dose.” for “and 2 h post-dose, respectively.”
Male Sprague Dawley rats of young adult age group and body weight range of 180-200 g were included in the study. Animals were housed under a 12 h light/dark cycle with food and water ad libitum. The animals underwent acclimatization with the observation chambers of the Hargreaves' apparatus for two days, twice daily for 45-60 min each time prior to initiation of study. Animals were also habituated to the apparatus for 15-30 min before each testing. Thermal hyperalgesia was assessed using the rat plantar test (Ugo Basile, Italy) following a modified method of Hargreaves (1988, “A new and sensitive method for measuring thermal nociception in cutaneous hyperalgesia”, Pain 32: 77-88). […]
Following basal readout of PWL values to the thermal stimulus (PWL measurements described previously), 50 μL of complete Freund's Adjuvant (CFA—1 mg/mL suspension—Sigma, USA, Cat # F5881) was injected subcutaneously into the plantar surface of the right hind (ipsilateral) paw of animals under light isoflurane anesthesia. […]
Next day (day 1) after 20-22 h of CFA injection, PWL of animals were recorded. Mean of three readings are taken as PWL recording of ipsilateral paw of each animal for pre and post CFA basal readout. […]

Row | Structure (SMILES) | reversal of thermal hyperalgesia (assessed 1 h post-dose) [%] | reversal of thermal hyperalgesia (assessed 2 h post-dose) [%]
1 | C[C@H](NC(=O)c1cc(-n2nncc2C(F)F)c2ncc(-c3ccc(Cl)s3)n2c1)c1nnc[nH]1 [Example 38] | 50 | 
2 | CC[C@H](NC(=O)c1cc(-n2nncc2C(F)F)c2ncc(-c3ccc(C)s3)n2c1)c1nnc[nH]1 [Example 52] | 39 | 
3 | CCc1cnnn1-c1cc(C(=O)NCc2ccc(C)nc2)cn2c(-c3ccc(C)s3)cnc12 [Example 22] | 77 | 68
